These are literature values, as cited in PMC9947563, “Identification of the molecular determinants of antagonist potency in the allosteric binding pocket of human P2X4” (Frontiers in Pharmacology, 2023).

Where two headings read alike, the source gives them in different places.

In data set [1] the test system is hP2X4. Particulars: cited from earlier work.
Data set [2] deals with rP2X4. The settings on record: ref Hernandez-Olmost et al. (2012); cited from earlier work.
For data set [3], the system named is mP2X4. The settings on record: ref Hernandez-Olmost et al. (2012); read-out: mP2X4 IC50; cited from earlier work.
In data set [4] the test system is P2X4. Also noted: method as in Hernandez-Olmos et al., 2012. Particulars: ref Hernandez-Olmos et al., 2012; cited from earlier work.
For data set [5] the following is noted: ref Hernandez-Olmos et al., 2012; cited from earlier work.
Data set [6] concerns P2X1. Details: method as in Tian M. et al., 2020. The settings on record: ref Tian M. et al., 2020; cited from earlier work.
The test system of data set [7] is P2X7. Details: method as in Tian M. et al., 2020. The settings on record: ref Tian M. et al., 2020; cited from earlier work.

With `O=C(OCc1ccccc1)N1c2ccccc2Oc2ccccc21` [PSB-12054], the IC50 in data set [1] (ref Hernandez-Olmost et al. (2012), read-out: hP2X4 IC50) was 190 nM; in data set [2], 2100 nM; in data set [3], 1800 nM. For the same compound, in data set [4], the “potency as P2X4 antagonist (in words)” value is “low micromolar range”. For the same compound, the “solubility (in words)” value in data set [5] was “partial solubility”.
Consider `O=C(Nc1cc(C(F)(F)F)cc(C(F)(F)F)c1)c1cccc(Cl)c1O` [Tian-13], for which the IC50 was 48.8 ± 11 nM in data set [1] (ref Tian M. et al., 2020, read-out: P2X4 IC50); 49 nM in data set [1] (ref Tian et al. (2020), read-out: hP2X4 IC50); 58 ± 21.9 nM in data set [6]; 177 ± 11 nM in data set [7].
